From PubChem BioAssay AID743434 (The Scripps Research Institute Molecular Screening Center, 2014)
Active and inactive are the calls of the source. The rule behind the calls is not given here.

Molecular target: Sphingosine 1-phosphate receptor 3 (Homo sapiens) (UniProt Q99500)
Assay: S1P3 receptor antagonists, late-stage follow-up, cell-based, fluorescence, dose response (AID 743434)
Settings: S1P3-expressing cells, fluorescence antagonist assay

Sphingosine 1-phosphate receptor 3 (Homo sapiens), sequence (Q99500 whole entry, looked up): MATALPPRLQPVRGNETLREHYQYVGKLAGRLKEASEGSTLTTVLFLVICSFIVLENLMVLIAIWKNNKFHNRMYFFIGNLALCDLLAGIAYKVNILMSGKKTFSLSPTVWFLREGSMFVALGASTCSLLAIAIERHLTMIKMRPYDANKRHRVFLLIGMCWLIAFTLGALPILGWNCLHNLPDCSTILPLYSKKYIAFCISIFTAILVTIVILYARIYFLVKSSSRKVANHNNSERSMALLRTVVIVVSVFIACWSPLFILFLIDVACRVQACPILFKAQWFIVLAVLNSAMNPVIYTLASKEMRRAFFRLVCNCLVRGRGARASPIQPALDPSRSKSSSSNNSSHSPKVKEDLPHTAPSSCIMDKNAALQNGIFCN

IC50 | Structure (SMILES)
1100 nM | O=C(NC(c1ccc(Cl)cc1)c1nc(-c2cccc(Cl)c2)no1)c1cccc(Cl)c1 (stereo not drawn)
inactive | O=C(c1cccc(Cl)c1)N(CCO)C(c1ccc(Cl)c(Cl)c1)c1nc(-c2ccccc2)no1 (stereo not drawn)
214 nM | O=C(NC(c1ccc(Br)cc1)c1nc(-c2ccccc2)no1)c1ccc(Cl)c(Cl)c1 (stereo not drawn)
2900 nM | O=C(NC(c1ccc(Cl)cc1)c1nc(-c2ccccn2)no1)c1cccc(Cl)c1 (stereo not drawn)
76 nM | O=C(NC(c1ccc(Cl)c(Cl)c1)c1nc(-c2ccccc2)no1)c1ccc(Cl)cc1 (stereo not drawn)
320 nM | N#Cc1ccc(C(=O)NC(c2ccc(Cl)c(Cl)c2)c2nc(-c3ccccc3)no2)cc1 (stereo not drawn)
2400 nM | O=C(NC(c1ccccc1)c1nc(-c2ccccc2)no1)c1ccc(Cl)cc1 (stereo not drawn)
2800 nM | O=C(NC(c1ccccc1)c1nc(-c2ccccc2)no1)c1cccc(Cl)n1 (stereo not drawn)
2800 nM | O=C(NC(c1nc(-c2ccccc2)no1)C1CCOCC1)c1ccc(Cl)c(Cl)c1 (stereo not drawn)
66 nM | O=C(NC(c1ccc(Cl)c(Cl)c1)c1nc(-c2ccccc2)no1)c1ccc(Cl)c(Cl)c1 (stereo not drawn)
390 nM | O=C(NC(c1ccc(Cl)cc1)c1nc(-c2ccccc2)no1)c1ccc(Cl)c(Br)c1 (stereo not drawn)
inactive | COc1ccc(C(=O)NC(c2ccccc2)c2nc(-c3ccccc3)no2)cc1 (stereo not drawn)
53 nM | O=C(NC(c1ccc(Cl)c(Cl)c1)c1nc(-c2ccccc2)no1)c1cccc(Cl)c1 (stereo not drawn)
33 nM | O=C(NC(c1cccc(Cl)c1)c1nc(-c2ccccc2)no1)c1cc(Cl)cc(Cl)c1 (stereo not drawn)
214 nM | O=C(NC(c1ccc(Cl)cc1)c1nc(-c2ccccc2)no1)c1cccc(Cl)c1 (stereo not drawn)
3300 nM | O=C(NC(c1nc(-c2ccccc2)no1)C1CCCCC1)c1ccc(Cl)c(Cl)c1 (stereo not drawn)
5700 nM | O=C(NC(Cc1ccccc1)c1nc(-c2ccccc2)no1)c1cccc(Cl)c1 (stereo not drawn)
inactive | Cc1ccc(C(=O)NC(c2ccccc2)c2nc(-c3ccccc3)no2)cc1 (stereo not drawn)
